Counter-ions that a name gives are not always drawn.
Columns and labels:
Type in all cases: cell-based
[1] = tested on: U937R (cytarabine-resistant strain, acute myeloid leukemia); assay: CCK8 cell viability, U937R cells; details: HHT 15 ng/mL, DOX 120 ng/mL (8:1)
Protocol: (§1) Cells in the Corning 96-well U plates were incubated for 24 h and then washed with PBS, 110 μL CCK8 dilution was added to each well and incubated for 2 h, and the absorbance values (OD) at wavelengths of 450 and 630 nm were measured using the microplate reader. The cell viability was calculated according to Formula 1.

[2] = tested on: HL60/A cells (HL60 cells resistant to Doxorubicin); assay: CCK8 cell viability, HL60/A cells; details: 24 h
Protocol: Taking HL60/A cells (HL60 cells resistant to Doxorubicin) as an example, the specific method was as follows:
as §1

[3] = tested on: HeLa cells; assay: CCK8 cell viability, HeLa cells; details: Homo sapiens, HHT 20 ng/mL, DOX 120 ng/mL (6:1)
Protocol: as §1

[4] = tested on: MCF7 cells; assay: CCK8 cell viability, MCF7 cells; details: Homo sapiens, HHT 25 ng/mL, DOX 100 ng/mL (4:1)
Protocol: as §1

[5] = tested on: K562 cells; assay: CCK8 cell viability, K562 cells; details: Homo sapiens, HHT 25 ng/mL, DOX 375 ng/mL (15:1)
Protocol: as §1

| SMILES | viability at 0.015 µg/mL [1] | viability at 0.025 µg/mL ([2]; Homo sapiens, HL60/A cells, HHT 25 ng/mL, DOX 200 ng/mL (DOX:HHT 8:1), FIG. 3, system of Example 1) | viability at 0.02 µg/mL [3] | viability at 0.025 µg/mL [4] | viability at 0.025 µg/mL [5] | viability at 0.12 µg/mL [1] | cytotoxicity against Doxorubicin-resistant strain HL60/A ([2]; DOX 200 ng/mL, FIG. 3) | viability at 0.12 µg/mL [3] | viability at 0.1 µg/mL [4] | viability at 0.375 µg/mL [5] |
| --- | --- | --- | --- | --- | --- | --- | --- | --- | --- | --- |
| COC(=O)C[C@](O)(CCCC(C)(C)O)C(=O)O[C@@H]1C(OC)=C[C@]23CCCN2CCc2cc4c(cc2[C@H]13)OCO4 [HHT, Homoharringtonine] | 59% | 56% | 41% | 50% | 59% | – | – | – | – | – |
| COc1cccc2c1C(=O)c1c(O)c3c(c(O)c1C2=O)C[C@@](O)(C(=O)CO)C[C@@H]3O[C@H]1C[C@H](N)[C@H](O)[C@H](C)O1 [DOX, Doxorubicin hydrochloride] | – | – | – | – | – | 55% | no cytotoxicity | 90% | 92% | 80% |

— patent publication US12274709B2, “Dual-drug co-delivery system, preparation method therefor and use thereof” (Institute of Basic Medical Sciences Chinese Academy of …, priority 2019, dated 2025)
